Data taken from PubChem BioAssay AID1963835 (Molecular Pharmacology Branch, DTP, NCI, 2024).

Test system: 699152-130-R-J1-PDC complex spheroid viability
Test: Anticancer human tumor 699152-130-R-J1-PDC patient-derived pancreatic carcinoma cell line growth inhibition [POLQ]
Conditions: for IC50: curve of first compound; for viability, T/C: stronger effect = lower value; active = viability on the fitted dose curve at most 10% of control; inactive = the rest
Experimental: Multicellular complex tumor spheroid response to Polymerase (POL) inhibitors (novobiocin, ART-558, RP6685) in combination with a variety of drugs and investigational agents in selected tumor cell lines
The POL inhibitors (novobiocin, ART-558, and RP6685) were evaluated both individually and in combination with standard of care and investigational anticancer small molecules within a complex spheroid model of solid tumors. . Complex spheroids include a stromal component modeled by human endothelial cells (HUVEC) and fibroblasts modeled by human mesenchymal stem cells (MSCs). The concentration ranges selected for each drug and investigational agent were based upon clinically achievable concentrations if the clinical Cmax of the agent was known.
Compounds. The drugs and investigational agents: novobiocin (NSC847541), ART-558 (NSC835418), RP-6685 (NSC848927), peposertib (NSC802822), ceralasertib (NSC780249), elimusertib (NSC800525), camonsertib (NSC841442), AZD-1390 (NSC803789), olaparib (NSC753686), talazoparib (NSC767125), rucaparib (NSC756644), sotorasib (NSC818433), MRTX-1133 (NSC836407), SN-38 (NSC673596), topotecan (NSC609699), epotoside (NSC141540), doxorubicin (NSC123127), gemcitabine (NSC613327), 5-fluorouracil (NSC19893), paclitaxel (NSC125973), vemurafenib (NSC761431), MSA-2 (NSC828583), SN-011 (NSC837082), adavosertib (NSC754352), prexasertib (NSC758257), carboplatin (NSC241240) and oxaliplatin (NSC266046), were obtained from the National Cancer Institute (NCI) Developmental Therapeutics Program Chemical Repository (21). The FDA-approved anticancer drug set is available from the Developmental Therapeutics Program at https://dtp.cancer.gov/organization/dscb/obtaining/. […] The stock solutions were prepared in dimethyl sulfoxide (DMSO, Sigma-Aldrich, St. Louis, MO, cat. D2650), except for the platinum compounds which were prepared in saline (Quality Biological, Gaithersburg, MD, cat. 114-055-101), at 800-fold the tested concentration and stored at -70 degrees C prior to their use. All drugs and investigational agents were tested over a range starting from a high concentration at or near the clinical Cmax and decreasing in half-log increments. If the clinical Cmax for an agent had not been determined, the highest concentration tested was 10 microM, except for SN-38, which was tested at a high concentration of 1 microM.
Cell Culture. All cells were maintained in an incubator at 37 degrees C and 5% CO2 with 95% humidity. The PDC lines were cultured according to standard operating procedures established by the NCI PDMR (https://pdmr.cancer.gov). Table 3 of the manuscript, lists the cell lines along with the number of the three cell types plated to form the mct-spheroids and media for tumor cell growth. After thawing, all PDC lines, except 997537-175-T-J1-PDC and 415267-285-R-J2-PDC, were cultured in Matrigel-coated flasks prepared with a working solution of 1X Ham's F-12 nutrient mix, without supplementation (Thermo Fisher Scientific, cat. 11765054), 100 U/mL penicillin-streptomycin (Thermo Fisher Scientific, cat. 15140122), and 2.5% Matrigel (Corning Inc., Corning, NY, cat. 354248) for the first three passages. The two PDC lines 997537-175-T-J1-PDC and 415267-285-R-J2-PDC were cultured on uncoated flasks. The 857933-349-R-J2-PDC line was cultured in 6C/Colon 1B media containing advanced DMEM/F-12 (Thermo Fisher Scientific, cat. 12634028), 10 mM HEPES (Thermo Fisher Scientific, cat. 15630080), 1X GlutaMAX supplement (Thermo Fisher Scientific, cat. 35050061), 0.1 mg/mL primocin (InvivoGen, San Diego, CA, cat. ant-pm-2), 10% defined fetal bovine serum, heat inactivated (HyClone Laboratories Inc., Logan, UT, cat. SH30070.03HI), 50% L-WRN conditioned media (ATCC, cat. CRL-3276), 1.25 mM N-Acetyl-L-cysteine (Sigma-Aldrich, cat. A9165), 10 mM nicotinamide (Sigma-Aldrich, cat. N0636), 1X B-27 supplement (Thermo Fisher Scientific, cat. 17504044), 1X N-2 supplement (Thermo Fisher Scientific, cat. […]
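Note: spheroids exposed to agents for 7 days before viability reading.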
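Throughout, for viability, T/C: percent of DMSO vehicle control viability so 100% = vehicle and 0% = no viable signal.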

CC(C)n1c(=O)n(C)c2cnc3cc(F)c(-c4ccc(OCCCN5CCCCC5)nc4)cc3c21 + Nc1ccc(C#CCN(C(=O)Cc2ncc(C(F)(F)F)cc2C(F)(F)F)c2ccc(F)cc2)nn1
inactive: viability, T/C (second compound 0.0316 µM, first compound 0.0316 µM) 88.5% | viability, T/C (second compound 0.0316 µM, first compound 0.1 µM) 111% | viability, T/C (second compound 0.0316 µM, first compound 0.316 µM) 93.5% | viability, T/C (second compound 0.0316 µM, first compound 1 µM) 97.9% | viability, T/C (second compound 0.0316 µM, first compound 3.16 µM) 104% | viability, T/C (second compound 0.0316 µM, first compound 10 µM) 96.8% | viability, T/C (second compound 0.1 µM, first compound 0.0316 µM) 118% | viability, T/C (second compound 0.1 µM, first compound 0.1 µM) 103% | viability, T/C (second compound 0.1 µM, first compound 0.316 µM) 106% | viability, T/C (second compound 0.1 µM, first compound 1 µM) 108% | viability, T/C (second compound 0.1 µM, first compound 3.16 µM) 101% | viability, T/C (second compound 0.1 µM, first compound 10 µM) 86.9% | viability, T/C (second compound 0.316 µM, first compound 0.0316 µM) 98.1% | viability, T/C (second compound 0.316 µM, first compound 0.1 µM) 105% | viability, T/C (second compound 0.316 µM, first compound 0.316 µM) 103% | viability, T/C (second compound 0.316 µM, first compound 1 µM) 116% | viability, T/C (second compound 0.316 µM, first compound 3.16 µM) 104% | viability, T/C (second compound 0.316 µM, first compound 10 µM) 89.5% | viability, T/C (second compound 1 µM, first compound 0.0316 µM) 109% | viability, T/C (second compound 1 µM, first compound 0.1 µM) 93.6% | viability, T/C (second compound 1 µM, first compound 0.316 µM) 103% | viability, T/C (second compound 1 µM, first compound 1 µM) 111% | viability, T/C (second compound 1 µM, first compound 3.16 µM) 106% | viability, T/C (second compound 1 µM, first compound 10 µM) 89% | viability, T/C (second compound 3.16 µM, first compound 0.0316 µM) 116% | viability, T/C (second compound 3.16 µM, first compound 0.1 µM) 98.2% | viability, T/C (second compound 3.16 µM, first compound 0.316 µM) 112% | viability, T/C (second compound 3.16 µM, first compound 1 µM) 118% | viability, T/C (second compound 3.16 µM, first compound 3.16 µM) 108% | viability, T/C (second compound 3.16 µM, first compound 10 µM) 86.2% | viability, T/C (second compound 10 µM, first compound 0.0316 µM) 116% | viability, T/C (second compound 10 µM, first compound 0.1 µM) 119% | viability, T/C (second compound 10 µM, first compound 0.316 µM) 121% | viability, T/C (second compound 10 µM, first compound 1 µM) 113% | viability, T/C (second compound 10 µM, first compound 3.16 µM) 112% | viability, T/C (second compound 10 µM, first compound 10 µM) 91.9%
> 10 µM: IC50 (second compound 0.0316 µM) | IC50 (second compound 0.1 µM) | IC50 (second compound 0.316 µM) | IC50 (second compound 1 µM) | IC50 (second compound 3.16 µM) | IC50 (second compound 10 µM)
